Reference: US5786372A, “Heteroaryl compounds used as pharmaceuticals” (SmithKline Beecham p.l.c., priority 1992, dated 1998)
Structures can show the parent of a compound that is named as a salt.

Target: T1, 5-HT4 receptor (Cavia porcellus, UniProt O70528)
T1 construct: Longitudinal muscle-myenteric plexus preparations, approximately 3 cm long, are obtained from the distal colon region; from tissue; host or cells: guinea-pig distal colon, longitudinal muscle-myenteric plexus preparation
Assay: Guinea pig colon 5-HT4 receptor antagonist activity (longitudinal muscle-myenteric plexus, 5-HT evoked contraction)
Details: -log concentration of antagonist which reduces the 5-HT evoked contraction by 50%; guinea-pig distal colon; methiothepin 10^-7 M and granisetron 10^-6 M present
Description: 5-HT4 RECEPTOR ANTAGONIST ACTIVITY
Male guinea-pigs, weighing 250-400 g are used. Longitudinal muscle-myenteric plexus preparations, approximately 3 cm long, are obtained from the distal colon region. These are suspended under a 0.5 g load in isolated tissue baths containing Krebs solution bubbled with 5% CO2 in O2 and maintained at 37° C. In all experiments, the Krebs solution also contains methiothepin 10^-7 M and granisetron 10^-6 M to block effects at 5-HT1, 5-HT2 and 5-HT3 receptors.
After construction of a simple concentration-response curve with 5-HT, using 30 s contact times and a 15 min dosing cycle, a concentration of 5-HT is selected so as to obtain a contraction of the muscle approximately 40-70% maximum (10^-9 M approx). The tissue is then alternately dosed every 15 min with this concentration of 5-HT and then with an approximately equi-effective concentration of the nicotine receptor stimulant, dimethylphenylpiperazinium (DMPP). After obtaining consistent responses to both 5-HT and DMPP, increasing concentrations of a putative 5-HT4 receptor antagonist are then added to the bathing solution. The effects of this compound are then determined as a percentage reduction of the contractions evoked by 5-HT or by DMPP. […] A compound which reduces the response to 5-HT but not to DMPP is believed to act as a 5-HT4 receptor antagonist.

T1 sequence (O70528 whole entry): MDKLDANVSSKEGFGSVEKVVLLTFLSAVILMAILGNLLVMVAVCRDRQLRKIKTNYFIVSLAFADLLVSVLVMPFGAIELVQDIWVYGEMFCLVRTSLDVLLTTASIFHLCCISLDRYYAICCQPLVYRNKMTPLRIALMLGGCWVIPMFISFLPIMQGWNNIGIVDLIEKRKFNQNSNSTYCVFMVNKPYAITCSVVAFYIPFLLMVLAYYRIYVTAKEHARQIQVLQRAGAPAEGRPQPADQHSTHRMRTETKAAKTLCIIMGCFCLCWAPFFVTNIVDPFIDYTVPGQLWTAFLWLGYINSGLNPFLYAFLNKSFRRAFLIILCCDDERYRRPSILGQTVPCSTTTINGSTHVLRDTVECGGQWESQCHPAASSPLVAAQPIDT

Nc1c(Cl)cc(C(=O)OCC2CCN(CCCO)CC2)c2c1OCCO2 [Example E1, [1-(3Hydroxypropyl)-4-piperidinyl]methyl 8-amino-7-chloro-1,4-benzodioxan-5-carboxylate hydrochloride]
IC50: 0.0631 nM
